The values below come from PMC4820240 (Angewandte Chemie (International ed. in English), 2016).

One data set has as its system MCF-7 cells. As to conditions: read-out: IC50 MCF-7; toxicity towards MCF-7 cells.
A further data set has as its system A549 cells. Nature of the data set: Cytotoxicity of CPPs towards A549 cells. Type of data set: cell-based. As to conditions: read-out: IC50 A549; toxicity towards A549 cells.
The subject of a further data set is human RBCs. As to conditions: read-out: EC50 RBCs (hemolysis); freshly isolated human RBCs.
The subject of a further data set is HeLa cells. As to conditions: read-out: IC50 HeLa; toxicity towards HeLa cells.
A short description of data set [1]: Serum stability in 25% serum solution. Conditions: 25% serum solution as a function of time (Figure 4B legend).

As a reminder, the IC50 is the concentration needed to halve the response being measured. Broadly, the EC50 is the concentration that produces a half-maximal response. Consider `N=C(N)NCCC[C@H](NC(=O)[C@H](CCCNC(=N)N)NC(=O)[C@H](CCCNC(=N)N)NC(=O)[C@H](CCCNC(=N)N)NC(=O)[C@H](CCCNC(=N)N)NC(=O)[C@H](CCCNC(=N)N)NC(=O)[C@H](CCCNC(=N)N)NC(=O)[C@@H](N)CCCNC(=N)N)C(N)=O` [R8], for which the IC50 in the data set on MCF-7 cells is 170 µM; in the data set with A549 cells, more than 1000 µM; in the data set with HeLa cells it was 269 µM. The EC50 in the data set on human RBCs worked out at 371 µM.
On to `N=C(N)NCCC[C@H](NC(=O)CN)C(=O)N[C@@H](CCCCN)C(=O)N[C@@H](CCCCN)C(=O)N[C@@H](CCCNC(=N)N)C(=O)N[C@@H](CCCNC(=N)N)C(=O)N[C@@H](CCC(N)=O)C(=O)N[C@@H](CCCNC(=N)N)C(=O)N[C@@H](CCCNC(=N)N)C(=O)N[C@@H](CCCNC(=N)N)C(=O)N1CCC[C@H]1C(=O)N1CCC[C@H]1C(=O)N[C@@H](CCC(N)=O)C(N)=O` [TAT], for which the IC50 is 603 µM with MCF-7 cells, more than 1000 µM in the data set with A549 cells and more than 1000 µM in the data set on HeLa cells. Moreover, the EC50 in the data set on human RBCs was found to be 269 µM. Further, the “t1/2, serum stability” value in data set [1] stood at 1.7 h.
